Results on one compound are retold here after article PMC11514582, “Leveraging the Aggregated Protein Dye YAT2150 for Malaria Chemotherapy” (Pharmaceutics, 2024).

SMILES strings stand for the structures.

The test system of data set [1] is P. berghei ookinete development. Briefly: Ex vivo gametocyte-to-ookinete transition inhibition (ookinete maturation) assay. The format is cell-based, Plasmodium berghei. As to conditions: ex vivo, 24 h at 21 °C. As for the experimental part: Eight days before ookinete production, 100 µL of a red blood cell (RBC) pellet containing the Plasmodium berghei circumsporozoite protein and thrombospondin-related adhesive protein (TRAP)-related protein (CTRP)-green fluorescent protein (GFP) strain (CTRP-GFP, which expresses GFP when reaching ookinete stage, kindly provided by Inga Siden-Kiamos) in cryopreservation solution (RBC pellet:RPMI:30% glycerol in water, 1:1:2) was administered intraperitoneally (i.p.) to a BALB/c mouse (Charles River Laboratories, Wilmington, MA, USA). […] The effect of drugs on gametocyte-to-ookinete conversion was assessed in three independent replicas by plating 120 µL of each culture treated with serial dilutions of the compounds in 96-well plates and incubated for 24 h at 21 °C with orbital shaking at 50 rpm (modified from). Finally, samples diluted 1:100 in PBS were analyzed in an LSRFortessa flow cytometer (BD Biosciences, Franklin Lakes, NJ, USA) set up with the 4 lasers, 20 parameters standard configuration. The GFP positive cell population was counted (λexcitation: 488 nm; λemission: 525/40 nm) using BD FACSDiva software 6.1.3 (BD Biosciences) for data collection and Flowing Software 2.5.1 (Turku Center for Biotechnology, Turku, Finland) for analysis.

Data set [2] has as its system P. berghei oocysts in A. gambiae mosquitoes. Briefly: Membrane blood feeding assay (oocyst production in mosquitoes). Format: in vivo, Plasmodium berghei. The note with it: 10 µM in blood meal; 7 days. As for the experimental part: The Anopheles gambiae mosquito G3 strain was reared under standard conditions at 28 °C and 80% humidity. One to two days before blood feeding, the mosquitoes were fed penicillin (20 U/mL) and streptomycin (20 μg/mL) in the sugar meal (10% sucrose). Mice were infected with the P. berghei mutant Bergreen, which constitutively expresses GFP [18]. Blood was obtained by heart puncture of one mouse, and aliquoted in two tubes that were immediately placed at 37 °C. YAT2150 at a final concentration of 10 µM diluted from a stock solution in dimethyl sulfoxide (DMSO) was added to one tube. The control tube contained the same concentration of DMSO (0.5%). After the feeding carried out in membrane feeders for 60 min, mosquitoes were kept at 19 °C and provided with sugar meal containing the antibiotics as above. Seven days after feeding, the mosquitoes were dissected in PBS, mounted in […]®, and GFP-positive oocysts were counted under an Axioskop 2 microscope (Zeiss, Oberkochen, Germany).

The nature of data set [3]: In vivo toxicity in C. elegans. On the set-up: species or system Caenorhabditis elegans. The note with it: N2 Bristol, Caenorhabditis elegans, in vivo; 48 h, viability. As for the experimental part: (§1) The Caenorhabditis elegans N2 Bristol strain (kindly provided by Dr. Christian Griñán-Ferré) was cultured, following established methods, in 90 mm Petri dishes containing solid Nematode Growth Media (NGM) seeded with E. coli OP50 (100 µL of an overnight culture spread on top of the NGM), maintained at 20 °C, and expanded to new plates once a week by transferring a 1-cm^3 NGM cube to a new plate. […] To do this, a plate with gravid adult worms was washed twice with 5 mL of M9 buffer (20 mM KH2PO4, 42 mM Na2HPO4, 86 mM NaCl, 1 mM MgSO4), and the nematodes were transferred to a 15-mL conical tube, where they were pelleted (400× g, 2 min). […] C. elegans viability and body length were analyzed after 48 h under a stereomicroscope (Leica M50 Routine Stereo Microscope; Leica Microsystems GmbH), taking representative images and videos with a 4× objective. C. elegans viability was determined in three experimentally independent replicas according to two variables: body shape (stiff, rod-like worms were counted as dead, as opposite to s-shaped live worms) and presence of movement in living C. elegans, with an n ≥ 100 worms/sample. Nematode body length was calculated with ImageJ software in worms anesthetized with 50 mM sodium azide. Statistically significant differences between groups were determined by the two-way analysis of variance (ANOVA) using GraphPad Prism 9.0.1.

The test system of data set [4] is C. elegans. Briefly: In vivo toxicity in C. elegans. On the set-up: species or system Caenorhabditis elegans. As to conditions: non-encapsulated, 50 µM. As for the experimental part: as §1
The target of data set [5] is CYP3A4 (Homo sapiens, UniProt P08684). Briefly: in vitro. As to conditions: microsomes.
Chain of CYP3A4 (P08684 whole entry): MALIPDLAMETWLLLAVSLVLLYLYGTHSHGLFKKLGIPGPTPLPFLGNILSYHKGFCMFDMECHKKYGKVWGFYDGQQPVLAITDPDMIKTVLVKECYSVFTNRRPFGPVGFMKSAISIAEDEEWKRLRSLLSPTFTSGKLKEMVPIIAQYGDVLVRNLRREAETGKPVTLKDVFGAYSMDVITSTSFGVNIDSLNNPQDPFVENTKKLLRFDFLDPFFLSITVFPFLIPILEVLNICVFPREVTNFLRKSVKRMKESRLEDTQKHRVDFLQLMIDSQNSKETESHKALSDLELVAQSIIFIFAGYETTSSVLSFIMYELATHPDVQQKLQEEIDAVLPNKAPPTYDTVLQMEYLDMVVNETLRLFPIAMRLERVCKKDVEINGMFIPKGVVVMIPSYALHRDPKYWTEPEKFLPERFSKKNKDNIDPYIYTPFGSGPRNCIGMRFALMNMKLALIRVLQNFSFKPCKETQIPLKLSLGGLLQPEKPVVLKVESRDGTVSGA

The term IC50 denotes the concentration needed to halve the response being measured. Lower therefore signals greater potency in that assay. What is called inhibition is the share of the control response that was lost under treatment. With `CCN(CC)c1ccc(/C=C/c2cc[n+](CCCCCCCCCC[n+]3ccc(/C=C/c4ccc(N(CC)CC)cc4)c(C)c3)cc2C)cc1` [YAT2150], the “concentration that abolished ookinete production” value in data set [1] was “ca. 0.5 µM”. Besides, in data set [2], the “oocyst number/midgut compared to the control” value is “significantly reduced” and the “prevalence of infection compared to the control” value is on record as “significantly reduced”. Further, in data set [3], the 50% inhibitory concentration (IC50) at 48 h stood at 16.2 ± 1.4 µM. Besides, the “nematode survival/length assay observation” value in data set [4] is “No worms could be found”. In addition, the inhibition at 30 min, 10 µM in data set [5] was 35 ± 3%.
